Measured values taken from publication PMC4335062, “Data-Driven Prediction and Design of bZIP Coiled-Coil Interactions” (PLoS Computational Biology, 2015).
Like-named read-outs stand apart in the source and are kept apart here. Where no end group is shown, it is not given here.

Columns and labels:
Experiment in all cases: Direct-binding FRET assay
NFIL3 = target: T1, NFIL3 (Homo sapiens, UniProt Q16649)
T1 construct: made in house
T1 sequence (Q16649 73-136 limits assumed): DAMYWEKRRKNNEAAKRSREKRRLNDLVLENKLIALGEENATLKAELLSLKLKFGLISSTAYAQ
Method in brief: (§1)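 Heterodimer affinities are derived from FRET titrations fitted with a dimerization model that uses homodimer Kd values of the designed peptide and of the target bZIPs. Interactions giving under 15% donor change are labelled "NS".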

HLF = target: T2, HLF (Homo sapiens, UniProt Q16534)
T2 construct: made in house
T2 sequence (Q16534 225-288 limits assumed): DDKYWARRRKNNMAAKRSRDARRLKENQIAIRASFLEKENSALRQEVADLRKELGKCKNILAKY
Method in brief: as §1

ATF5 = target: T3, ATF5 (Homo sapiens, UniProt Q9Y2D1); conditions: Kd
T3 construct: made in house
T3 sequence (Q9Y2D1 208-271 limits assumed): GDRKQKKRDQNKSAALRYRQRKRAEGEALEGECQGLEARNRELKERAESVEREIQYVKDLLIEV
Method in brief: as §1

JUNB = target: T4, JUNB (Homo sapiens, UniProt P17275); conditions: Kd, mean or single
T4 construct: made in house
T4 sequence (P17275 268-331 limits assumed): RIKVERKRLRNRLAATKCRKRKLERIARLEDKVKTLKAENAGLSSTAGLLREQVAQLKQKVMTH
Method in brief: as §1

CREB3 = target: T5, CREB3 (Homo sapiens, UniProt O43889)
T5 construct: made in house
T5 sequence (O43889 150-213 limits assumed): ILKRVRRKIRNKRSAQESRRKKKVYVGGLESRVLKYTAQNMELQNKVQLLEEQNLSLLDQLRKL
Method in brief: as §1

BACH2 = BACH2 (Homo sapiens, UniProt Q9BYV9); parameters: made in house; conditions: Kd
Description: (§2) The direct binding assay was performed manually in 384-well plates and is similar to a previously described assay. Wells were filled with 20 μL of 1 mM TCEP-HCl. A 4 μM stock of acceptor protein was made fresh in 1 mM TCEP-HCl, and 20 μL was titrated in 2-fold dilutions over the wells. […] The direct-binding FRET data were fit as previously described. Briefly, the Kd of the designed peptide homodimer was experimentally determined and used with previously determined target homodimer Kd values to determine the heterodimer Kd. The homodimer Kd values used for the human bZIPs were from; experiments done by […] et al. used the same protein constructs for the human bZIP proteins, the same buffer conditions, and the same assay. The fitting used a system of ordinary differential equations to describe the concentrations of homo and heterodimers formed by the donor (D) and acceptor (A) as a function of the heterodimer Kd. MATLAB was used to simulate the binding experiment for different Kd values, and the value that gave the best agreement between simulation and experiment was assigned. A minimum 15% change in the donor fluorescence upon titrating the acceptor peptide from 0 to 1000 nM was required for a fit to be attempted. If this minimum was not met, the interaction was classified as “NS” for no signal change. […] These interactions were marked “AS” to indicate anomalous signal. We attributed this to interactions between the peptides, the dyes and the walls of the assay plates at low concentrations. These curves could not be fit, given their unusual shapes at low concentrations of acceptor. For such curves, we removed the first five points and re-fit the data. […] One example of this is increasing concentrations of acceptor causing an increase in donor fluorescence.

MAFB = MAFB (Homo sapiens, UniProt Q9Y5Q3); parameters: made in house; conditions: Kd, mean or single
Description: as §2

MAF = MAF (Homo sapiens, UniProt O75444); parameters: made in house
Description: as §2

BACH1 = BACH1 (Homo sapiens, UniProt O14867); parameters: made in house
Description: as §2

ATF6 = ATF6 (Homo sapiens, UniProt P18850); parameters: made in house
Description: as §2

NFE2L1 = NFE2L1 (Homo sapiens, UniProt Q14494); parameters: made in house; conditions: Kd, mean or single
Description: as §2

[1] = 4°C, C-terminal fluorescein design as donor, TAMRA target titrated
[2] = 4°C, C-terminal rhodamine design, mean or single
[3] = 4°C, N-terminal rhodamine design, mean or single
[4] = 23°C, C-terminal fluorescein design as donor, TAMRA target titrated
[5] = 23°C, C-terminal rhodamine design, mean or single
[6] = 23°C, N-terminal rhodamine design, mean or single
[7] = 37°C, C-terminal fluorescein design as donor, TAMRA target titrated
[8] = 37°C, N-terminal rhodamine design, mean or single
[9] = 37°C, C-terminal rhodamine design, mean or single
[10] = 4°C, C-terminal rhodamine design
[11] = 4°C, N-terminal rhodamine design
[12] = 23°C, C-terminal rhodamine design
[13] = 23°C, N-terminal rhodamine design
[14] = 37°C, C-terminal rhodamine design
[15] = 37°C, N-terminal rhodamine design

Sequence of BACH2 (Q9BYV9 646-709 limits assumed): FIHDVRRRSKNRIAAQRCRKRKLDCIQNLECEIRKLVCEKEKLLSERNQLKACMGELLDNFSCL
Sequence of ATF6 (P18850 306-369 limits assumed): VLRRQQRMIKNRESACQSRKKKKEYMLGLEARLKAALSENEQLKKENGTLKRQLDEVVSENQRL
Sequence of MAF (O75444 288-351 limits assumed): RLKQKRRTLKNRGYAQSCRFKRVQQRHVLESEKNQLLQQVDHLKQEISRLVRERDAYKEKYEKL
Sequence of NFE2L1 (Q14494 654-717 limits assumed): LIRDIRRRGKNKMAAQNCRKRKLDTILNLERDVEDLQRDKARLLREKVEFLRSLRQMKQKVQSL
Sequence of BACH1 (O14867 557-620 limits assumed): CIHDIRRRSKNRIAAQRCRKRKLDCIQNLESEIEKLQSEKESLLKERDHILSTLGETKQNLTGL

Question: “SIAATLEKEEANLEKMNKKLAAEIESLLKEKDKLESVLNYHE [JUN-d1]” was tested. Which Kd (NFIL3) did it give?
Answer: > 1 µM

Question: And the Kd (NFIL3; [1])?
Answer: > 1 µM

Question: What about the Kd (NFIL3; [2]) of the same sequence?
Answer: > 1 µM

Question: And the Kd (NFIL3; [3])?
Answer: > 1 µM

Question: What about the Kd (NFIL3; [4]) of the same sequence?
Answer: > 1 µM

Question: And the Kd (NFIL3; [5])?
Answer: > 1 µM

Question: What about the Kd (NFIL3; [6]) of the same sequence?
Answer: > 1 µM

Question: And the Kd (NFIL3; [7])?
Answer: > 1 µM

Question: And the Kd (NFIL3; [8])?
Answer: > 1 µM

Question: And the Kd (HLF)?
Answer: > 1 µM

Question: And the Kd (HLF; [1])?
Answer: > 1 µM

Question: And the Kd (HLF; [2])?
Answer: > 1 µM

Question: And the Kd (HLF; [3])?
Answer: > 1 µM

Question: And the Kd (HLF; [4])?
Answer: > 1 µM

Question: What about the Kd (HLF; [5]) of the same sequence?
Answer: > 1 µM

Question: And the Kd (HLF; [6])?
Answer: > 1 µM

Question: What about the Kd (HLF; [7]) of the same sequence?
Answer: > 1 µM

Question: What about the Kd (HLF; [8]) of the same sequence?
Answer: > 1 µM

Question: What about the Kd (ATF5; [1]) of the same sequence?
Answer: > 1 µM

Question: What about the Kd (ATF5; [2]) of the same sequence?
Answer: > 5 µM

Question: What about the Kd (ATF5; [3]) of the same sequence?
Answer: > 1 µM

Question: What about the Kd (ATF5; [4]) of the same sequence?
Answer: > 1 µM

Question: And the Kd (ATF5; [5])?
Answer: > 1 µM

Question: What about the Kd (ATF5; [6]) of the same sequence?
Answer: > 1 µM

Question: What about the Kd (ATF5; [7]) of the same sequence?
Answer: > 1 µM

Question: What about the Kd (ATF5; [9]) of the same sequence?
Answer: > 1 µM

Question: And the Kd (ATF5; [8])?
Answer: > 1 µM

Question: What about the Kd (JUNB; [10]) of the same sequence?
Answer: 0.001 µM

Question: What about the Kd (JUNB; [11]) of the same sequence?
Answer: 0.0027 µM

Question: And the Kd (JUNB; [12])?
Answer: 0.0084 µM

Question: What about the Kd (JUNB; [13]) of the same sequence?
Answer: 0.053 µM

Question: And the Kd (JUNB; [14])?
Answer: 0.051 µM

Question: What about the Kd (JUNB; [15]) of the same sequence?
Answer: 0.85 µM

Question: What about the Kd (CREB3) of the same sequence?
Answer: > 1 µM

Question: And the Kd (CREB3; [2])?
Answer: > 1 µM

Question: What about the Kd (CREB3; [3]) of the same sequence?
Answer: > 1 µM

Question: What about the Kd (CREB3; [5]) of the same sequence?
Answer: > 1 µM

Question: What about the Kd (CREB3; [6]) of the same sequence?
Answer: > 1 µM

Question: What about the Kd (CREB3; [8]) of the same sequence?
Answer: > 1 µM

Question: And the Kd (BACH2; [1])?
Answer: > 1 µM

Question: And the Kd (BACH2; [2])?
Answer: > 5 µM

Question: And the Kd (BACH2; [3])?
Answer: > 1 µM

Question: And the Kd (BACH2; [4])?
Answer: > 1 µM

Question: And the Kd (BACH2; [5])?
Answer: > 1 µM

Question: What about the Kd (BACH2; [6]) of the same sequence?
Answer: > 1 µM

Question: And the Kd (BACH2; [7])?
Answer: > 1 µM

Question: What about the Kd (BACH2; [9]) of the same sequence?
Answer: > 1 µM

Question: What about the Kd (BACH2; [8]) of the same sequence?
Answer: > 1 µM

Question: What about the Kd (MAFB; [10]) of the same sequence?
Answer: 0.326 µM

Question: What about the Kd (MAFB; [11]) of the same sequence?
Answer: > 1 µM

Question: What about the Kd (MAFB; [12]) of the same sequence?
Answer: > 1 µM

Question: And the Kd (MAFB; [13])?
Answer: > 1 µM

Question: What about the Kd (MAFB; [14]) of the same sequence?
Answer: > 1 µM

Question: What about the Kd (MAFB; [15]) of the same sequence?
Answer: > 1 µM

Question: What about the Kd (MAF) of the same sequence?
Answer: > 1 µM

Question: What about the Kd (MAF; [2]) of the same sequence?
Answer: > 1 µM

Question: And the Kd (MAF; [3])?
Answer: > 1 µM

Question: What about the Kd (MAF; [5]) of the same sequence?
Answer: > 1 µM

Question: What about the Kd (MAF; [6]) of the same sequence?
Answer: > 1 µM

Question: And the Kd (MAF; [8])?
Answer: > 1 µM

Question: And the Kd (BACH1)?
Answer: > 1 µM

Question: What about the Kd (BACH1; [1]) of the same sequence?
Answer: > 1 µM

Question: What about the Kd (BACH1; [2]) of the same sequence?
Answer: > 1 µM

Question: What about the Kd (BACH1; [3]) of the same sequence?
Answer: > 1 µM

Question: And the Kd (BACH1; [4])?
Answer: > 1 µM

Question: What about the Kd (BACH1; [5]) of the same sequence?
Answer: > 1 µM

Question: And the Kd (BACH1; [6])?
Answer: > 1 µM

Question: What about the Kd (BACH1; [7]) of the same sequence?
Answer: > 1 µM

Question: And the Kd (BACH1; [8])?
Answer: > 1 µM

Question: And the Kd (ATF6)?
Answer: > 1 µM

Question: And the Kd (ATF6; [1])?
Answer: > 1 µM

Question: What about the Kd (ATF6; [2]) of the same sequence?
Answer: > 1 µM

Question: What about the Kd (ATF6; [3]) of the same sequence?
Answer: > 1 µM

Question: And the Kd (ATF6; [4])?
Answer: > 1 µM

Question: What about the Kd (ATF6; [5]) of the same sequence?
Answer: > 1 µM

Question: What about the Kd (ATF6; [6]) of the same sequence?
Answer: > 1 µM

Question: What about the Kd (ATF6; [7]) of the same sequence?
Answer: > 1 µM

Question: And the Kd (ATF6; [8])?
Answer: > 1 µM

Question: What about the Kd (NFE2L1; [10]) of the same sequence?
Answer: > 5 µM

Question: And the Kd (NFE2L1; [11])?
Answer: > 1 µM

Question: What about the Kd (NFE2L1; [12]) of the same sequence?
Answer: > 5 µM

Question: And the Kd (NFE2L1; [13])?
Answer: > 1 µM

Question: What about the Kd (NFE2L1; [14]) of the same sequence?
Answer: > 5 µM

Question: What about the Kd (NFE2L1; [15]) of the same sequence?
Answer: > 1 µM
